Tested on: SMN2 full length and Δ7 mRNA
Assay: Endogenous SMN2 mRNA end-point semi-quantitative RT-PCR splicing assay in cultured cells (GM03813)
Assay type: cell-based, human
Conditions: Type 1 SMA patient fibroblasts GM03813, increasing concentrations, 24 hr, agarose gel (FIG. 5)
Procedure: The endpoint reverse transcription-PCR splicing assay is used to visualize and quantify the levels of the SMN2 full length and Δ7 mRNA in primary cells and cell lines containing the SMN2 gene treated with a test compound.
GM03813 SMA patient cells (5,000 cells/well) are seeded in 200 μL of cell culture medium (DMEM plus 10% FBS) in 96-well flat-bottom plates and the plate is immediately swirled to ensure proper dispersal of cells, forming an even monolayer of cells. Cells are allowed to attach for at least 4-6 hrs. Test compounds are serially diluted 3.16-fold in 100% DMSO to generate a 7-point concentration curve. A solution of test compound (1 μL, 200× in DMSO) is added to each test well and 1 μL DMSO is added to each control well. The plate is incubated for 24 hrs in a cell culture incubator (37° C., 5% CO2, 100% relative humidity). The cells are then lysed in Cells-To-Ct lysis buffer and the lysate is stored at 80° C.
SMN FL and Δ7 mRNA are identified using the following primers in Table 6. These primers hybridize to a nucleotide sequence in exon 6 (SMN Forward C, SEQ ID NO. 11) (nucleotide 43 to nucleotide 63) and exon 8 (SMN Reverse C, SEQ ID NO. 12) (nucleotide 51 to nucleotide 73) common to human SMN1 and SMN2 mRNA. Since the SMA patient cells used in Example 4 contain only the SMN2 gene, RT-PCR can visualize and quantify only SMN2 full-length and SMN2 Δ7 mRNA.
To synthesize cDNA, 5 μL of lysate, 4 μL of 5× iScript reaction mix, 1 μL of reverse transcriptase, and 10 μL of water are combined and incubated 5 min at 25° C. followed by 30 min at 42° C., followed by 5 min at 85° C. The cDNA solution is stored at −20° C.
To perform endpoint PCR, 5 μL of cDNA, 0.2 μL of 100 μM forward primer, 0.2 μL of 100 μM reverse primer, and 22.5 μL of polymerase super mix are combined in a 96 well semiskirted PCR plate. PCR is carried out at the following temperatures for the indicated time: Step 1: 94° C. (2 min), Step 2: 94° C. (30 sec), Step 3: 55° C. (30 sec), Step 4: 68° C. (1 min), then repeat Steps 2 to 4 for a total of 33 cycles, then hold at 4° C.
10 μL of each PCR sample is electrophoretically separated on a 2% agarose E-gel for 14 minutes stained with double-stranded DNA (dsDNA) staining reagents (e.g., ethidium bromide) and visualized using a gel imager.

| SMILES | SMN2 FL mRNA (gel band) | SMN2 Δ7 mRNA (gel band) |
| --- | --- | --- |
| CN1CCN(c2ccc3cc(-c4nc5c(Cl)cccc5s4)c(=O)oc3n2)CC1 [Cpd 5, 3-(4-chloro-1,3-benzothiazol-2-yl)-7-(4-methylpiperazin-1-yl)-2H-pyrano[2,3-b]pyridin-2-one] | progressively more SMN2 FL mRNA | less SMN2 Δ7 mRNA |
| Cc1ccc2nc(-c3cc4ccc(N5CCN(C)CC5)nc4oc3=O)cn2c1 [Cpd 27, 3-(6-methylimidazo[1,2-a]pyridin-2-yl)-7-(4-methylpiperazin-1-yl)-2H-pyrano[2,3-b]pyridin-2-one] | progressively more SMN2 FL mRNA | less SMN2 Δ7 mRNA |
